According to patent publication US9573975B2, “Melanoma antigen peptide and uses thereof” (INSERM (INSTITUT NATIONAL DE LA SANTE ET DE LA RECHERCHE …, priority 2012, dated 2017):

Columns and labels:
Assay type in all cases: cell-based, human
[1] = tested on: CD4 T cells in PBMC from healthy donors; test: PBMC from healthy donors stimulated with MELOE-1, restimulated with overlapping peptides, CD4/TNF-α staining; details: for healthy donors in whom CD4 responses against the region were detected: seven healthy donors, TNFα production
Description: FIG. 1: (A) Percentages of TNF-α producing CD4 T cells among positive microcultures. Fourteen days after PBMC stimulation with MELOE-1 whole polypeptide (2-46), microcultures were re-stimulated with each indicated peptide during 5 hours. TNF-α production was then assessed by a double labeling TNF-α-CD4. Results were analyzed with a non-parametric test (Kruskal-Wallis) followed by a Dunns post-test. (B) Frequency of microcultures containing CD4 T cells specific for MELOE-1 peptides (assessed by TNF-α intracellular staining after re-stimulation with the 4 indicated peptides). 624 microcultures (from 7 healthy donors) were analyzed by a contingency table followed by a Fisher exact test.
PBMC from healthy donors were stimulated with 10 μM of MELOE-1. After 14 days, the presence of CD4 T cells specific for the different regions of MELOE-1 was assessed by restimulating cells with MELOE-12-21, MELOE-111-30, MELOE-118-37 and MELOE-126-46 peptides, followed by CD4/TNF-α double staining and flow cytometry analysis. Between brackets is indicated the mean % of TNF-α producing CD4 T cells, in positive microcultures. NA: not available.
(§1) PBMC from healthy donors or melanoma patients (2·10^5 cells/well) were cultured for 14 days with 10 μM of MELOE-1 whole antigen (46 amino acids) in RPMI medium supplemented with 8% HS, 50 IU/ml of rIL-2 (Chiron, France) and L-Glutamin, in 96-well multiplates. Micro cultures were then restimulated individually with each overlapping peptide (MELOE-12-21, MELOE-111-30, MELOE-118-37, MELOE-126-46 or MELOE-122-46 for melanoma patients) in the presence of 10 μg/mL brefeldin A for 5 hours and the percentage of CD4^+ specific T cells was assessed by TNF-α, IFN-γ or IL-4 intracellular staining A negative control without peptide was included in all experiments.
(§2) Lymphocytes were stimulated for 5 hours in the presence of brefeldin A (10 μg/mL) either with peptide alone (10 μM) in an autopresentation assay or with B-EBV or HLA-class II expressing melanoma cells pulsed 2 hours with the cognate peptide, at a ratio 1:2. In some experiments, blocking mAb against HLA-DP (clone B7.21 from Dr Charron, UMR940, Paris), HLA-DQ (clone SPVL3, Beckman Coulter) or HLA-DR (clone L243, BD Biosciences) were added at a concentration of 12.5 μg/ml. Cells were then stained with APC-conjugated anti-CD4 mAb, fixed with 4% paraformaldehyde, labeled with PE-conjugated anti-cytokine mAb and analyzed by flow cytometry.
Our purpose was to look for the existence of class II helper epitopes all along MELOE-1 sequence (SEQ ID NO: 20), in order to document the immunogenicity of the different regions of this melanoma antigen. We stimulated 2·10^7 PBMC from seven healthy donors with MELOE-1 whole antigen and tested, after a 14-day culture period the presence of CD4 T cells specific for each region of the protein. Microcultures were screened for TNFα production by CD4+ T cells, after restimulation with four MELOE-1 derived overlapping peptides (Table I), in an autopresentation assay. […] On the contrary, the central region 18-37, containing an already described DR11-restricted epitope (24-37) located just at the end of this 20-mer peptide (Rogel et al., 2011), induced specific responses in microcultures deriving from only 2/7 donors (HD9 and HD17, both expressing the DR11 element). In these two donors, we detected 6 and 7% of positive microcultures, containing between 0.6 to 3.7% of TNFα producing CD4 T cells.

[2] = tested on: MELOE-111-30 specific CD4 T cell clone (5F9-DRβ1*0101); test: Peptide stimulation of CD4 T cell clone 5F9, intracellular cytokine staining; details: DRβ1*0101 restricted T cell clone (5F9)
Description: (§3) FIG. 5: Minimal peptides recognized by MELOE-1 specific CD4 T cell clones. MELOE-1 specific CD4 T cell clones were incubated with various concentrations of the indicated peptides during 5 hours in presence of Brefeldin A. TNF-α production was assessed by intracellular labeling with an anti-TNF-α specific antibody. The core peptide sequence is indicated in bold on each figure panel, and black circles illustrate the best fitting peptide.
as §2
(§4) We also documented the T helper profile of each T cell clone, by stimulating the CD4 T cell clones with the cognate peptide, and analyzing cytokine production. All the clones expressed Th1 cytokines (TNFα, IFNγ, IL2 and GM-CSF). On the contrary, these clones differ in their expression of Th2 cytokines. Indeed, the two DQ2 restricted T cell clones (9C12 and 4E2) and the DR1 restricted one (5F9) also strongly express two Th2 cytokines (IL4, and IL13), whereas the DR11-restricted T cell clone only weakly expressed IL4 (Table IV). None of the CD4 T cell expresses IL10 or IL5 at a significant level.
(§5) Three shorter peptides were better recognized by the DQ2-restricted 9C12 T cell clone, the shortest one being MELOE-17-19 (13-mer), recognized with an EC50 of 100 nM. The deletion of the two amino acids in C-term strongly reduces T cell clone recognition. […] Nonetheless all of these clones recognized a series of shortened peptides, thus we cannot formally assess that the shortest ones will be the exact peptides naturally presented on class II molecules.

[3] = tested on: MELOE-1 specific T cell clones; test: HLA restriction of MELOE-1 specific T cell clones (anti-HLA blocking antibodies, HLA-matched B-EBV cell lines); details: T cell clone 4E2 (from HD25)
Description: FIG. 3: HLA-restricting element of MELOE-1 specific T cell clones and reactivity against HLA-matched melanoma cell lines. The HLA restriction of MELOE-1 specific T cell clones was first assessed using anti-HLA blocking antibodies (upper panel). T cell clones were stimulated for 5 hours in the presence of brefeldin A (10 μg/mL) either with peptide alone (10 μM) in an autopresentation assay and in presence or not of blocking antibodies at a concentration of 12.5 μg/mL. HLA restriction was confirmed with HLA-matched B-EBV cell lines pulsed 2 hrs with the cognate peptide, at a ratio 1:2 (middle panel). Reactivity of each T cell clone against HLA-class II expressing melanoma cells was assessed, in presence or not of exogeneous peptide (lower panel). After 5 hours of stimulation, cells were then stained with APC-conjugated anti-CD4 mAb, fixed with 4% paraformaldehyde, labeled with PE-conjugated anti-TNF-α mAb and analyzed by flow cytometry.
as §2
In order to formally characterize the recognized epitopes, we derived CD4 T cell clones specific for each region of MELOE-1 by limiting dilution, from microcultures of healthy donors or melanoma patients, containing at least 0.5% of specific CD4 T cells. We succeeded to derive CD4 specific T cell clones from HD17, HD22, HD25 and Pt≠3 microcultures, which were reactive against MELOE-12-21 (HD22), MELOE-111-30 (HD17 and Pt≠3) and MELOE-126-46 (HD25). From each cloning experiment, we obtained between one and ten reactive CD4 T cell clones, that turned out to be the same clonotype after CDR3B sequencing (Table IV). A single CD4 T cell clone for each specificity was used for further experiments. The HLA-restriction was determined for each T cell clone, first by using HLA-class II blocking monoclonal antibodies (FIG. 3, upper panel), and further by testing the recognition of HLA-matched B-EBV cell lines loaded with each recognized long peptide (FIG. 3 middle panel). The two T cell clones named 9C12 and 4E2, derived from HD22 and HD25 and specific for MELOE-12-21 and MELOE-126-46 were restricted by the HLA-DQβ1*0202 and the DQβ1*0201 molecules respectively. […]

[4] = tested on: MELOE-126-46 specific CD4 T cell clone (4E2-DQβ1*0201); test: Peptide stimulation of CD4 T cell clone 4E2, intracellular cytokine staining
Description: as §3, §2, §4, §5

[5] = tested on: CD4 T cells in PBMC from melanoma patients; test: PBMC from melanoma patients stimulated with MELOE-1, restimulated with peptides, CD4/IFN-γ and CD4/IL4 staining
Description: FIG. 2: (A) Percentages of cytokine producing CD4 T cells among positive microcultures. Fourteen days after PBMC stimulation with MELOE-1 whole polypeptide (2-46), microcultures were re-stimulated with each indicated peptide during 5 hours. IFN-γ (left panel) and IL4 (right panel) production was then assessed by a triple labeling IFN-γ-IL4-CD4. Results were analyzed with a non-parametric test (Kruskal-Wallis) followed by a Dunns post-test. (B) Frequency of microcultures containing CD4 T cells specific for MELOE-1 peptides (assessed by IFN-γ or IL4 intracellular staining after re-stimulation with the 3 indicated peptides). 576 microcultures (from 10 melanoma patients) were analyzed by a contingency table followed by a Fisher exact test.
PBMC from melanoma patients were stimulated with 10 μM of MELOE-1. After 14 days, the presence of CD4 T cells specific for the different regions of MELOE-1 was assessed by restimulating cells with MELOE-12-21, MELOE-111-30 and MELOE-122-46 peptides, followed by CD4/IFN-γ double staining for the detection of Th1 responses, and by CD4/IL4 double staining for Th2 responses. Between brackets is indicated the mean % of cytokine producing CD4 T cells, in positive microcultures.
as §1, §2
In order to confirm the immunogenicity of each MELOE-1 regions in melanoma patients, we stimulated melanoma patients PBMC with the MELOE-1 whole protein, and tested the reactivity of stimulated lymphocytes towards the three most immunogenic regions: 2-21, 11-30, and 22-46. For this study, instead of challenging microcultures with the 18-37 peptide, that appeared poorly immunogenic, we extended the C-terminus region from 26-46 to 22-46, in order to also detect responses to our previously described HLA-DR11-restricted epitope (24-37). […] We tested the induction of CD4 specific responses from MELOE-1 stimulated PBMC of 10 melanoma patients. We documented CD4 responses specific for the central region of MELOE-1 (11-30) for 7/9 patients, whereas responses specific for MELOE-12-21 and MELOE-122-46 were respectively detected in 4/9 and 5/9 patients (Table III). These responses were mainly Th1 responses (IFN-g production) while less frequent Th2 responses specific for the three regions of MELOE-1 were detected in 3/9 patients for MELOE-12-21, 2/9 patients for MELOE-111-30 and 5/9 patients for MELOE-122-46 (Table III). […] Concerning Th2 responses, much less frequent, the C-term region appeared to induce more frequently the growth of IL-4 producing CD4 T cells than the two other regions (FIG. 2A). […]

[6] = clone 4E2, cognate peptide 10 μM, 5 hours

PSEGAACPPWHPSERISSTL [MELOE-118-37]
mean % of TNF-α producing CD4 T cells, in positive microcultures ([1]; donor HD17): (3% ± 0.7) | healthy donors in whom CD4 responses against the region were detected [1]: 2/7

SREQFLPSEGAAC [MELOE-112-24]
recognition by T cell clone (TNF-α production) [2]: optimal shorter peptides

PWHPSERISSTLNDECWPASL [MELOE-126-46]
HLA-restricting element of the peptide-specific T cell clone [3]: DQβ1*0201 | Cytokine profile: GM-CSF [4, 6]: GM-CSF ^high | Cytokine profile: IFN [4, 6]: IFN ^high | Cytokine profile: IL2 [4, 6]: IL2 ^high | Cytokine profile: IL4 [4, 6]: IL4 ^high | Cytokine profile: IL5 [4, 6]: IL5 ^low | Cytokine profile: IL10 [4, 6]: IL10 ^neg | Cytokine profile: IL13 [4, 6]: IL13 ^high | Cytokine profile: TNF ([4]; clone 4E2, cognate peptide 10 μM, 5 hours, autopresentation): TNF ^high | mean % of TNF-α producing CD4 T cells, in positive microcultures ([1]; donor HD22): (1% ± 0.1) | healthy donors in whom CD4 responses against the region were detected [1]: 4 out of 7

TSREQFLPSEGAA [MELOE-111-23]
recognition by T cell clone (TNF-α production) [2]: optimal shorter peptides

RISSTLNDECWPA [Peptide 32-44]
recognition by T cell clone (TNF-α production) ([4]; T cell clone 4E2, compared with 31-44): recognized to a lower extent

AACPPWHPSERISSTLNDECWPASL [MELOE-122-46]
mean % of cytokine producing CD4 T cells, in positive microcultures (IFN-γ, Th1) ([5]; Pt ≠ 1): (4.8% ± 7.2) | mean % of cytokine producing CD4 T cells, in positive microcultures (IL4, Th2) ([5]; Pt ≠ 1): (0.8% ± 0.3) | mean % of cytokine producing CD4 T cells, in positive microcultures (IFN-γ, Th1) ([5]; Pt ≠ 2): (0.6% ± 0.02) | mean % of cytokine producing CD4 T cells, in positive microcultures (IFN-γ, Th1) ([5]; Pt ≠ 3): (1.9% ± 1.3) | mean % of cytokine producing CD4 T cells, in positive microcultures (IL4, Th2) ([5]; Pt ≠ 5): (0.8%) | mean % of cytokine producing CD4 T cells, in positive microcultures (IFN-γ, Th1) ([5]; Pt ≠ 7): (2.9% ± 3.5) | mean % of cytokine producing CD4 T cells, in positive microcultures (IL4, Th2) ([5]; Pt ≠ 7): (1.5% ± 0.7) | mean % of cytokine producing CD4 T cells, in positive microcultures (IFN-γ, Th1) ([5]; Pt ≠ 8): (0.5%) | mean % of cytokine producing CD4 T cells, in positive microcultures (IL4, Th2) ([5]; Pt ≠ 8): (0.6%) | mean % of cytokine producing CD4 T cells, in positive microcultures (IL4, Th2) ([5]; Pt ≠ 9): (0.7% ± 0.15) | Th1 responses, share of tested microcultures ([5]; of 576 tested microcultures, melanoma patients): 9.6% | melanoma patients with CD4 specific responses (mainly Th1, IFN-g production) ([5]; responding/tested patients): 5/9 | melanoma patients with Th2 responses ([5]; responding/tested patients, IL4): 5/9
